From PMC9851200, “Multiparameter phenotypic screening for endogenous TFEB and TFE3 translocation identifies novel chemical series modulating lysosome function” (Autophagy, 2022)
Read-outs that look alike come from different tables or passages of the source.

Legend:
Type in all cases: binding
[1] = molecular target: cellular kinases of SH-SY5Y cells (Homo sapiens, UniProt Q16512); assay: biochemical; conditions: 2µM; SH-SY5Y cells; Labeling Site Lys1; VLLSEFRPSGELFAIKALK; read-out: KiNativ in-cell binding, % Inhibition, PKN1
Description: (§1) As KINOMEscan is an in vitro assay, and as different cell types have variable kinase expression profiles we sought to determine the kinase binding profile in our SH-SY5Y TFEB-relocalization cell model. […] Bound kinases were pulled down and analyzed by mass spectrometry to determine the in situ kinase binding profile for each compound.

[2] = molecular target: T1, cellular kinases of SH-SY5Y cells (Homo sapiens, UniProt Q9Y6E0); assay: biochemical; conditions: 2µM; SH-SY5Y cells; Labeling Site Lys2; DIKAANVLLSEHGEVK; read-out: KiNativ in-cell binding, % Inhibition, STK24/MST3
T1 construct: endogenous in cells; host or cells: SH-SY5Y
Description: as §1

[3] = molecular target: T2, cellular kinases of SH-SY5Y cells (Homo sapiens, UniProt Q13233); assay: biochemical; conditions: 2µM; SH-SY5Y cells; Labeling Site Lys2; DVKGANLLIDSTGQR; read-out: KiNativ in-cell binding, % Inhibition, MAP3K1
T2 construct: endogenous in cells; host or cells: SH-SY5Y
Description: as §1

[4] = molecular target: T3, cellular kinases of SH-SY5Y cells (Homo sapiens, UniProt Q92918); assay: biochemical; conditions: 2µM, SH-SY5Y cells, read-out: KiNativ in-cell binding, % Inhibition, MAP4K1/HPK1
T3 construct: endogenous in cells; host or cells: SH-SY5Y
Description: as §1

[5] = molecular target: T4, cellular kinases of SH-SY5Y cells (Homo sapiens, UniProt Q15131); assay: biochemical; conditions: 2µM; SH-SY5Y cells; labeling site Lys2; peptide DLKVSNLLMTDK
T4 construct: endogenous in cells; host or cells: SH-SY5Y
Description: as §1

[6] = molecular target: T5, cellular kinases of SH-SY5Y cells (Homo sapiens, UniProt Q14164); assay: biochemical; conditions: 2µM; SH-SY5Y cells; Labeling Site Lys1; SGELVAVKVFNTTSYLRPR; read-out: KiNativ in-cell binding, % Inhibition, IKBKE/IKKe
T5 construct: endogenous in cells; host or cells: SH-SY5Y
Description: as §1

[7] = molecular target: cellular kinases of SH-SY5Y cells (Homo sapiens, UniProt P50613); assay: biochemical; conditions: 2µM; SH-SY5Y cells; Labeling Site Lys2; DLKPNNLLLDENGVLK; read-out: KiNativ in-cell binding, % Inhibition, CDK7
Description: as §1

[8] = molecular target: T6, cellular kinases of SH-SY5Y cells (Homo sapiens, UniProt P23743); assay: biochemical
T6 construct: endogenous in cells; host or cells: SH-SY5Y
Description: as §1

[9] = molecular target: cellular kinases of SH-SY5Y cells (Homo sapiens, UniProt Q05397); assay: biochemical; conditions: 2µM, SH-SY5Y cells, read-out: KiNativ in-cell binding, % Inhibition, PTK2/FAK
Description: as §1

[10] = molecular target: cellular kinases of SH-SY5Y cells (Homo sapiens, UniProt P29323); assay: biochemical; conditions: 2µM; SH-SY5Y cells; Labeling Site Activation Loop; FLEDDTSDPTYTSALGGKIPIR; read-out: KiNativ in-cell binding, % Inhibition, EphB2
Description: as §1

[11] = molecular target: T7, cellular kinases of SH-SY5Y cells (Homo sapiens, UniProt P23458); assay: biochemical; conditions: 2µM, SH-SY5Y cells
T7 construct: endogenous in cells; host or cells: SH-SY5Y
Description: as §1

[12] = molecular target: cellular kinases of SH-SY5Y cells (Homo sapiens, UniProt P49841); assay: biochemical; conditions: read-out: KiNativ in-cell binding, % Inhibition, GSK3B
Description: as §1

[13] = molecular target: kinases (KINOMEscan panel) (Homo sapiens, UniProt Q8TD08)
[14] = molecular target: kinases (KINOMEscan panel) (Homo sapiens, UniProt Q9H2G2)
[15] = molecular target: kinases (KINOMEscan panel) (Homo sapiens, UniProt Q9Y2H1)
[16] = molecular target: kinases (KINOMEscan panel) (Homo sapiens, UniProt Q02763)
[17] = molecular target: kinases (KINOMEscan panel) (Homo sapiens, UniProt Q16620)
[18] = molecular target: kinases (KINOMEscan panel) (Homo sapiens, UniProt O60285)
[19] = molecular target: kinases (KINOMEscan panel) (Homo sapiens, UniProt Q13164)
[20] = molecular target: kinases (KINOMEscan panel) (Homo sapiens, UniProt Q9UK32)
[21] = molecular target: kinases (KINOMEscan panel) (Homo sapiens, UniProt Q13163)
[22] = molecular target: kinases (KINOMEscan panel) (Homo sapiens, UniProt Q9Y6E0)
[23] = molecular target: kinases (KINOMEscan panel) (Homo sapiens, UniProt Q13188)
[24] = molecular target: kinases (KINOMEscan panel) (Homo sapiens, UniProt P46734)
[25] = molecular target: kinases (KINOMEscan panel) (Homo sapiens, UniProt Q02750)
[26] = molecular target: kinases (KINOMEscan panel) (Homo sapiens, UniProt P45985)
[27] = molecular target: kinases (KINOMEscan panel) (Homo sapiens, UniProt O14733)
[28] = molecular target: kinases (KINOMEscan panel) (Homo sapiens, UniProt Q15418)
Chain of kinases (KINOMEscan panel) (Homo sapiens, UniProt Q15418) (Q15418 whole entry): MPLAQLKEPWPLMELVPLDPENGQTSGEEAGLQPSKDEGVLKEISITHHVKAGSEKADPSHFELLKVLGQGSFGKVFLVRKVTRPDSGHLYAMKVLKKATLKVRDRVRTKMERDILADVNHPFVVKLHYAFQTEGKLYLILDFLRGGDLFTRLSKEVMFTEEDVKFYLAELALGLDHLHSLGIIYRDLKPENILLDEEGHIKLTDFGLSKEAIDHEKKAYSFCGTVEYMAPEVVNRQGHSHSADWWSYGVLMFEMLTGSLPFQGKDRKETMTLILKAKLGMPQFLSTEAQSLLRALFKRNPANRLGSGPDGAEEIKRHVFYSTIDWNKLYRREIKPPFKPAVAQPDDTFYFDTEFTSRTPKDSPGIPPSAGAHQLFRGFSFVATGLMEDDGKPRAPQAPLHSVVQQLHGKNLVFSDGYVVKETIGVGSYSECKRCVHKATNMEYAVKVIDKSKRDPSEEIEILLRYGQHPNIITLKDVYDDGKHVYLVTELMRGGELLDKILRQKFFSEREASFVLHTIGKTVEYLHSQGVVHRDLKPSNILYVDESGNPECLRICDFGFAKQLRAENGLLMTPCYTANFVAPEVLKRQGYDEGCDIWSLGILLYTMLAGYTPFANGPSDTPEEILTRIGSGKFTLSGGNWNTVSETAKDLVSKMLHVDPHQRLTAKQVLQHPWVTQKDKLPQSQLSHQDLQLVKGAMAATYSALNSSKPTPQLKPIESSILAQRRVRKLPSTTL

T7 sequence (P23458 whole entry): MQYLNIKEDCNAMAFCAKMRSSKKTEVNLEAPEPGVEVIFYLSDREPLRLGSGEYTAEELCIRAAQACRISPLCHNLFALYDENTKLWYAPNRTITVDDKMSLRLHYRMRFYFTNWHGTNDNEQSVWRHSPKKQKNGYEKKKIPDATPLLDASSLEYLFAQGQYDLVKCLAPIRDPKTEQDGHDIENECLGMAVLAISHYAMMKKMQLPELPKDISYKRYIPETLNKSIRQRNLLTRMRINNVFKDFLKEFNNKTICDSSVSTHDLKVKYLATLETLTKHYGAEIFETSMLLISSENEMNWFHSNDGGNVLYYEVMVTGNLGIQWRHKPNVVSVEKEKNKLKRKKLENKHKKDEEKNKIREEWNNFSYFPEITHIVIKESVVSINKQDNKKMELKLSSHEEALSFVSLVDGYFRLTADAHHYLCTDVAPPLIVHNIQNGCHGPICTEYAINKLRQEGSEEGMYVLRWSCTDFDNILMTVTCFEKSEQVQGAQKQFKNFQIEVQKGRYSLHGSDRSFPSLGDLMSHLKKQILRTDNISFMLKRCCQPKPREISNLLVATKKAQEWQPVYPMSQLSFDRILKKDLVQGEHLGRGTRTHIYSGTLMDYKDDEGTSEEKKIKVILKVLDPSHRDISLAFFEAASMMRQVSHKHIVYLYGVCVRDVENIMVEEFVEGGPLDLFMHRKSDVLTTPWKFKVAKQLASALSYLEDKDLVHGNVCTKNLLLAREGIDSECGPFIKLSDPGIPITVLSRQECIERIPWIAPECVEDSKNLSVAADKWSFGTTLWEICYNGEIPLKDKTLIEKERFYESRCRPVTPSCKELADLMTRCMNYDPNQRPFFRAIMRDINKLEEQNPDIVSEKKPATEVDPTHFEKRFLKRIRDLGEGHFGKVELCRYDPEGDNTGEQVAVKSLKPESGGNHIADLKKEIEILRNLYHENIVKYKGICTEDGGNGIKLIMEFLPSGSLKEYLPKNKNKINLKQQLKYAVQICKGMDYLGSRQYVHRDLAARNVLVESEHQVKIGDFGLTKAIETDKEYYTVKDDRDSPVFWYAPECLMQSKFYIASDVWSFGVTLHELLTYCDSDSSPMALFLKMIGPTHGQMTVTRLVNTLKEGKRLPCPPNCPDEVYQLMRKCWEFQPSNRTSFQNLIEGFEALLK
T3 sequence (Q92918 whole entry): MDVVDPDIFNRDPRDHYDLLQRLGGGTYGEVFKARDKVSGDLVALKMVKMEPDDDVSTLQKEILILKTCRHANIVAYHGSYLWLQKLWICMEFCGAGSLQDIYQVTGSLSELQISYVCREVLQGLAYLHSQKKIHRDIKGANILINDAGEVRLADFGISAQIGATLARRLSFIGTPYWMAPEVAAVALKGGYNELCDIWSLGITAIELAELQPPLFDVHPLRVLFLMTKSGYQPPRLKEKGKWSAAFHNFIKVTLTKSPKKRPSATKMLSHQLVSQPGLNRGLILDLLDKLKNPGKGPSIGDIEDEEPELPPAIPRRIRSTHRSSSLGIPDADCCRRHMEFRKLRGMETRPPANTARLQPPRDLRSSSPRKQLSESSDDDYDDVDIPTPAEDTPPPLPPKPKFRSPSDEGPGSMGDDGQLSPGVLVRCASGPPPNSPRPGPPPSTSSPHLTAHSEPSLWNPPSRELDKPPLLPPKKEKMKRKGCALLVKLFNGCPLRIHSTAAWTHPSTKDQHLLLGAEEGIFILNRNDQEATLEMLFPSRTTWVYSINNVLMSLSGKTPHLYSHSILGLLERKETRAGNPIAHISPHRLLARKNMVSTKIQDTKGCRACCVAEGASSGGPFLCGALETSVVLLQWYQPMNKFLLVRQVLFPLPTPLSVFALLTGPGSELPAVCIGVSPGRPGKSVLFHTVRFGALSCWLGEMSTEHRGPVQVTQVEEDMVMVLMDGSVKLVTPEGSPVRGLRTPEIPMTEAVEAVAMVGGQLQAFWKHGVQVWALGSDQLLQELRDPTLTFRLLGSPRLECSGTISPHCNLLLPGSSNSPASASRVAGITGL
Chain of cellular kinases of SH-SY5Y cells (Homo sapiens, UniProt Q05397) (Q05397 whole entry): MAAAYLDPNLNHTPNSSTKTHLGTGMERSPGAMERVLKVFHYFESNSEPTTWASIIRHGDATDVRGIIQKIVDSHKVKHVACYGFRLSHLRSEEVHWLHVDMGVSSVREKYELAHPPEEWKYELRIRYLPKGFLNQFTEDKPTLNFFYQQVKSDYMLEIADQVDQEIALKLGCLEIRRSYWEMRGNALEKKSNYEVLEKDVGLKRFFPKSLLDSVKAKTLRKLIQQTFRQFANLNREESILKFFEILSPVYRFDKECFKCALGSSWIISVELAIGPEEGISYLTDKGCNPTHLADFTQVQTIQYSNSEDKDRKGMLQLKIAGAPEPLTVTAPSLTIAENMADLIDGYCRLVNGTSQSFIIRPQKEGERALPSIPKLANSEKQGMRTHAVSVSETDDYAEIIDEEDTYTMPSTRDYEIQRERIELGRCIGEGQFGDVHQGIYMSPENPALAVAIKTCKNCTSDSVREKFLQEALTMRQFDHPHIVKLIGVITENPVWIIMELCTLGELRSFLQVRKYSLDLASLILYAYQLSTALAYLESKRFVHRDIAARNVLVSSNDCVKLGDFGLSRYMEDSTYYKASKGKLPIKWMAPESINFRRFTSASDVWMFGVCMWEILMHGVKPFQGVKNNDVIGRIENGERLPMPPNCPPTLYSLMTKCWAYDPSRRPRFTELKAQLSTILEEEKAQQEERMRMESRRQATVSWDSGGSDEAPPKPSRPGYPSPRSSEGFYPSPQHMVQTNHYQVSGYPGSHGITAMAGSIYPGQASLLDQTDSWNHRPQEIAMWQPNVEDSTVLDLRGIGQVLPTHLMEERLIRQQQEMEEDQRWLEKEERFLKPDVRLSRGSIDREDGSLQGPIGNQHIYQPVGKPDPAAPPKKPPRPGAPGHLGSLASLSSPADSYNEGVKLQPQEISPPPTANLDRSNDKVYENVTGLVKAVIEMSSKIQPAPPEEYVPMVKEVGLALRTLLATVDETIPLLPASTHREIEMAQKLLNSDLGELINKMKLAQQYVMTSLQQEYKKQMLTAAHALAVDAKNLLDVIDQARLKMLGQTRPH
Chain of kinases (KINOMEscan panel) (Homo sapiens, UniProt Q9UK32) (Q9UK32 whole entry): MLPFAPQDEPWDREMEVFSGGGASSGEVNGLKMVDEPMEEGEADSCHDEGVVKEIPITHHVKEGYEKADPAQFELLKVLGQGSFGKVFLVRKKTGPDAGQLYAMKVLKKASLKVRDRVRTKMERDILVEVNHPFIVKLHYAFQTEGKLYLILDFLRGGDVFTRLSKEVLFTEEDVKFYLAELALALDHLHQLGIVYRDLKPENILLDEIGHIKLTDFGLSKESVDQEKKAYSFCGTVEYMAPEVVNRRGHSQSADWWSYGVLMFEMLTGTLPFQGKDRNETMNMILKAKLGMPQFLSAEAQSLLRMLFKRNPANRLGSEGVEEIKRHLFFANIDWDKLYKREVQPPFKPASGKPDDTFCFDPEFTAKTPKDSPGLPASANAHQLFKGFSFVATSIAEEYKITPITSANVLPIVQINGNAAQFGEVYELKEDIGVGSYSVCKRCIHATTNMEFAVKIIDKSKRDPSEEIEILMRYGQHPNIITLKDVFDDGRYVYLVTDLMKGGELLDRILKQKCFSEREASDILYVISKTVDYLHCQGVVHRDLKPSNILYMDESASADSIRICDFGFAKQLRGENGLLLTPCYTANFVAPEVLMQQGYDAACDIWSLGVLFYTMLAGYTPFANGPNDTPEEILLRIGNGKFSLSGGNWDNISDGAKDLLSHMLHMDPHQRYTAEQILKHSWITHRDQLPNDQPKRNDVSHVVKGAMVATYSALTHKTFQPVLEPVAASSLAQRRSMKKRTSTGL
Chain of kinases (KINOMEscan panel) (Homo sapiens, UniProt Q8TD08) (Q8TD08 whole entry): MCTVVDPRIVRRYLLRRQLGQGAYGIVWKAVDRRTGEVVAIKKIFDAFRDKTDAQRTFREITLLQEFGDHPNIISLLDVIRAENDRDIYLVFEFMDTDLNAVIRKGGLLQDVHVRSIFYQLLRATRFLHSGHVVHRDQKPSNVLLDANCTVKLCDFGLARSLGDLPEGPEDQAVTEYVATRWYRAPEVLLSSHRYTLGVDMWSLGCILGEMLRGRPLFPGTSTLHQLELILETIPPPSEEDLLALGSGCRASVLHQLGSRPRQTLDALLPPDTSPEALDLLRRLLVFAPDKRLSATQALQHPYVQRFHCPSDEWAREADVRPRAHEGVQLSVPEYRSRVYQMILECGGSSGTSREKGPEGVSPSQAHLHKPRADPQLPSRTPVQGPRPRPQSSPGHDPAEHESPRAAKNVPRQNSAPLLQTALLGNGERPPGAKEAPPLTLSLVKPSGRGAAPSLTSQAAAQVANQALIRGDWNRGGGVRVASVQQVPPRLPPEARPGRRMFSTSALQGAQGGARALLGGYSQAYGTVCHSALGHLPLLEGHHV

SMILES: Cc1cccc(-c2nc(Nc3ccc4ncsc4c3)c3ccccc3n2)n1 [NK140]
- inhibition at 2 µM [1]: 3%
- inhibition at 2 µM [2]: 28.7%
- inhibition at 2 µM [3]: -7.7%
- inhibition at 2 µM ([4]; Labeling Site Lys1, DKVSGDLVALKMVK): 6.9%
- inhibition at 2 µM ([4]; Labeling Site Lys2, DIKGANILINDAGEVR): 30.2%
- KiNativ in-cell binding, CDK10 [5]: 3.3
- inhibition at 2 µM [6]: 34.5%
- inhibition at 2 µM [7]: 56.5%
- KiNativ in-cell binding, DGKA [8]: -19.6
- inhibition at 2 µM ([9]; Labeling Site Activation Loop, YMEDSTYYKASK): 16.9%
- inhibition at 2 µM ([9]; Labeling Site Lys1, CIGEGQFGDVHQGIYMSPENPALAVAIKTCK): 18%
- inhibition at 2 µM [10]: -8.7%
- inhibition at 2 µM ([11]; Labeling Site Lys1, YDPEGDNTGEQVAVKSLKPESGGNHIADLKK, read-out: KiNativ in-cell binding, % Inhibition, JAK1 domain2): 2.4%
- KiNativ in-cell binding, JAK1 domain2 ([11]; labeling site Activation Loop, peptide IGDFGLTKAIETDKEYYTVK): -56.1
- inhibition at 2 µM [12]: 15.8%

SMILES: Cc1cccc(-c2nc(N(C)c3ccc4ncsc4c3)c3ccccc3n2)n1 [NK-161]
- KINOMEscan MAPK15/ERK8 [13]: 0
- KINOMEscan FYN/SLK [14]: 4
- KINOMEscan STK38L/NDR2 [15]: 0
- KINOMEscan TEK/TIE2 [16]: 13
- KINOMEscan NTRK2/TRKB [17]: 45
- KINOMEscan NUAK1/ARK5 [18]: 0
- KINOMEscan MAPK7/ERK5 [19]: 0
- KINOMEscan RPS6KA6/RSK4(Kin.Dom.1-N-terminal) [20]: 8
- KINOMEscan RPS6KA6/RSK4(Kin.Dom.2-C-terminal) [20]: 4
- KINOMEscan MAP2K5/MEK5 [21]: 0
- KINOMEscan STK24/MST3 [22]: 0
- KINOMEscan STK3/MST2 [23]: 0
- KINOMEscan MAP2K3/MEK3 [24]: 0
- KINOMEscan MAP2K1/MEK1 [25]: 32
- KINOMEscan MAP2K4/MEK4 [26]: 0
- KINOMEscan MAP2K7/MKK7 [27]: 0
- KINOMEscan RPS6KA1/RSK1(Kin.Dom.1-N-terminal) [28]: 9
- KINOMEscan RPS6KA1/RSK1(Kin.Dom.2-C-terminal) [28]: 34
